Data: patent publication US8828993B2, “Psychotropic agents having glutamate NMDA activity” (Ramot At Tel-Aviv University Ltd., priority 2006, dated 2014)
Entries after “also recorded” stand apart in the source; their conditions may differ.

Tests used:
Type in all cases: in vivo
[1] = tested on: amphetamine-induced hyperactivity in mice; assay: Amphetamine-induced hyperactivity and stereotypic behavior
From the text: The amphetamine-induced hyperactivity and motility is one of the most popular animal models for schizophrenia (Pouzet B, et al., Effects of the 5-HT(7) receptor antagonist SB-258741 in animal models for schizophrenia. Pharmacol Biochem Behav April; 71(4):655-665, 2002 and Geyer, et al., Animal behavior models of the mechanisms underlying antipsychotic atypicalicity, Progress in Neuro-Psychopharmacol & Biological Psychiatry, 27, 1071-79, 2003). Amphetamines are known to augment dopaminergic and noradrenergic neurotransmission by inducing catecholamine release and preventing catecholamine reuptake
The experiment was conducted with ICR male mice placed in individual barrels. […] The locomotor activity, number of rearings and head movements was recorded every 15 minutes for 2 h.
As stated above, the amphetamine-induced hyperactivity and motility is one of the most popular animal models for schizophrenia. The experiment was conducted with ICR male mice placed in individual barrels. Compound 1 (20 mg/kg) was administered p.o to the mice 1 hr prior to i.p. administration of amphetamine (2. mg/kg). The hyper-active behavior expressed by the number of climbings and rearings and the stereotypic behavior expressed by the number of head movements was recorded every 15 minutes over a period of 1 h.
The effect of Compound 3 (12.5, 25 and 50 mg/kg, i.p.) on amphetamine-induced hyperactivity in Balb/c mice was also examined. Animals (6 per group) were injected with Compound 3 (12.5, 25 and 50 mg/kg) and 30 minutes later received amphetamine (2 mg/kg ip). After 30 minutes, animals were exposed to an open field test for a period of 20 minutes.

[2] = tested on: MK-801-induced hyperactivity in mice; assay: MK-801-induced hyperactivity in open field
Method: MK-801-Induced Stereotype Behavior in Rats (in Open Field)—
MK-801 is an analogue of PCP which inhibits NMDA receptors and elicits hyperlocomotion and stereotypic behavior in rodents and is used as an animal model of schizophrenia (Stephen, et al., Topiramate antagonizes MK-801 in an animal model of schizophrenia, Eur. J. Pharmacol. 449, 2002, 121-5). For experimentation, naïve Balb/c mice were used. MK-801 (0.15 mg/kg i.p) was administered 40 minutes after Compound 1 (or any one of the other compounds of the invention) or a vehicle, and 20 minutes prior to placing the mouse in an open field.
Animals placed in the open field were followed for 60 minutes and their distance moved, velocity, duration of immobility, and number of rearing events were registered using the Noldus system.
As stated above, MK-801 inhibits NMDA receptors and elicits hyperlocomotion. Therefore, where an antagonism of the hyperactivity-induced by the MK-801 is observed upon administration of a compound of the invention, it is an indication as to the positive modulation of the NMDA activity. In other words, such a compound may be considered as useful in the treatment of schizophrenia.
The effect of Compound 6 on the distance moved in Balb/c mice exposed to MK-801 ([…]) i.p. and to Compound 6 (up to 12.5 mg/kg, i.p.) administered 1 hr prior to MK-801 was also tested.
As stated above, MK-801 (an NMDA receptor antagonist) is a widely accepted animal model for schizophrenia. The experiment was conducted with Balb/c male mice (Harlan Il), 6 per group. Compound 1 (50 mg/kg) was administered i.p. (1 hr before experimentation), to mice alone or combined with MK-801 (0.15 mg/kg, i.p.) administered 20 minutes prior to placing the mice individually in an open field for 60 minutes. The hyper-active behavior expressed by hyperlocomotion, velocity, strong mobility, number of rearing was evaluated using the Noldus system, each point represents the mean+/−6 determinations.

[3] = tested on: mice; assay: Open field exploratory locomotor activity
From the text: Open Field Exploratory Locomotor Activity
The procedure consists of subjecting an animal, usually a rodent, to an unknown large environment from which escape is prevented by surrounding walls. The open field test is now one of the most popular procedures in animal psychology (Crawley, et al., Exploratory behavior models of anxiety in mice, Neurosci Biobehav Rev 9 (1985), pp. 37-44). The procedure involves forced confrontation of a rodent with the situation. The animal is placed in the center or close to the walls of the apparatus and the following behavioral items are recorded for a period ranging from 5 to 20 minutes: horizontal locomotion, and frequency of rearing or leaning. In such a situation, rodents spontaneously prefer the periphery of the apparatus to activity in the central parts of the open field. Increase in time spent in the central part as well as of the ratio central/total locomotion or decrease of the latency to enter the central part are indications of anxiolysis.
In a typical test, an individual mouse was placed in a novel environment of a square open field (50×50 cm), the floor of which had been divided into 3 areas, as shown below. The area within 10 cm of the chamber walls was termed the periphery. […] One hour after drug administration, the animal was placed in the same corner of the field. The animal behavior in the open field was recorded by videotaping for 20-60 minutes and analyzed subsequently digitally using the Noldus software for animal behavior. The measurements included velocity, distance moved, frequency of visits to the central area, number of rearing events.
The effect of Compound 1 on the behavior of mice in the open field and the dose-dependent effect following i.p administration were evaluated. Naïve male Mice (Balb/c, Harlan Israel) were used. The animals, divided 3 to 5 animals per group, were administered with Compound 1 (12.5, 25, 50, 75 and 100 mg/kg) 1 hr prior to placing each in an open field. Mice were monitored for 1 hr (every 5 minutes) using the Noldus system, and their distance moved, velocity, time of immobility and number of rearings was recorded.
The effect of Compound 6 on the behavior of mice in the open field was also examined. Naïve male mice (Balb/c, Harlan Israel) were used. Animals (6 per group) were administered with Compound 6 (12.5, 25 and 50 mg/kg, i.p.) 1 hr prior to placing each in the open field. Mice were followed for 1 hr (every 5 minutes) using the Noldus system, and their distance moved, velocity, time of immobility and number of rearings was recorded.
The effect of oral administration of Compound 1 in the open field was tested by orally administering to male ICR mice varying amounts of Compound 1 (5, 10 and 20 mg/kg) or vehicle. Animals were placed in the open field 1 hr after drug administration and horizontal and vertical behavior was recorded for 20 minutes.
The dose-dependent effect of Compound 3 administered i.p. in the open field was also tested. Naïve male mice (Balb/c, Harlan Israel) were used. Animals were administered with Compound 3 (12.5, 25 and 50 mg/kg, i.p., 6 per group) 1 hr prior to placing each in the open field. Mice were followed for 1 hr (every 5 minutes) using the Noldus system, and their distance moved, velocity, time of immobility and number of rearings was recorded.
Animals were administered orally with Compound 1 (5, 10 and 20 mg/kg) or with a vehicle. Animals were placed in the open field 1 hr after drug administration and animal track was registered for 20 minutes. The time spent in the center (zone 3) and the frequency to the center were indicators of anxiety.

[4] = tested on: mice; assay: Elevated plus maze; conditions: male Balb/c mice, oral, diazepam 1 mg/kg
From the text: The elevated plus maze is a widely used method to test anxiety in rodents (Pellow, et al., Pharmacol. Biochem. Behav., 24, 525-529 (1986)). The apparatus was made of wood and painted black, with two opposing open arms and two opposite enclosed arms of the same size. The arms were attached to a central square shaped in a plus sign. The whole apparatus was placed 50 cm above the floor. Anxious animals refrain from entering the open arm and prefer the closed arm.
In a typical experiment, Balb/c male mice were administered orally with 10 and 20 mg/kg of Compound 1 or Compound 6 and with a vehicle or with diazepam (1 mg/kg) administered per os (p.o.) 90 minutes before they were placed in the center of the maze. The frequency to the open aims, the time spent in the different arms, the velocity and number of rearings of the animals in each zone were recorded (Noldus).
Male Balb/c mice were used. Animals were transferred to the behavior room 24 hr before the experiment. Compound 1 or diazepam were administered orally 90 minutes before testing. Each treatment group included 5 animals.
Male Balb/c mice were used. Animals were transferred to the behavior room 24 hr before the experiment. Compound 6 (3, 9, or 27 mg/kg) or vehicle were administered orally 90 minutes before testing. Each treatment group included 5 animals.

[5] = tested on: mice; assay: Forced swim test (FST); conditions: male ICR mice, 20 mg/kg oral
From the text: This is one of the most widely used tools for screening antidepressant activity pre-clinically in acute treatment. The test was first described by Porsolt et al., (Behavioral despair in mice: a primary screening test for antidepressants. Arch. Int. Pharmacodyn. Ther. 229, pp. 327-336, 1977). The FST test is based on the observation that rats and mice develop an immobile posture when placed in an inescapable cylinder of water. This behavior is considered a behavioral despair as opposed to active form of coping with stressful conditions. The FST test is considered a good screening tool with good reliability and predictive validity.
Three parameters were defined in the evaluation of FST:
1. Immobility—defined in the traditional Porsolt test as when no additional activity is observed other than that required to keep the animal's head above water;
2. Swimming behavior—being the movement (usually horizontal) throughout the chamber that also includes crossing into another quadrant;
3. Climbing behavior—being defined as the upward-directed movements (vertical) of the forepaws along the side of the swim chamber.
The test in mice was conducted acutely (60-90 minutes post oral drug administration) and animals were dropped to the cylinder for 6 minutes and scoring was performed in the last 4 minutes after 2 minutes of adaptation.
Round glass cylinders, 18 cm in diameter and 20 cm deep were used. Water temperature was 24-28° C. Four parameters were taken: immobility, velocity, distance and strong mobility. The immobility in the animals was defined by activity lower than 10% movement of the center of gravity of the animal. Swimming was defined by the distance and the velocity of the animal, and climbing was related to strong mobility (movement of center of gravidance more than 30%).
Males Balb/c mice (Harlan Israel) were used. Animals were administered orally with Compound 1 (10 or 20 mg/kg) or with a vehicle.
Males ICR mice were used.

[6] = Balb/c mice, 12.5, 25 and 50 mg/kg i.p.

Question: Which results are given for `COC(=O)C(N)COCN1CCN(C2=Nc3ccccc3Nc3sc(C)cc32)CC1` (stereo not shown) [Compound 3]?
Answer: distance moved, combined with amphetamine ([1]; Balb/c mice, 12.5 mg/kg i.p.): normalization; distance moved, combined with amphetamine ([1]; Balb/c mice, 12.5, 25 and 50 mg/kg i.p. at -60 minutes): dose-dependent decrease; immobility, combined with amphetamine ([1]; Balb/c mice, 12.5, 25 and 50 mg/kg i.p., amphetamine 2 mg/kg ip): dose-dependently increased; effect of amphetamine (hypermotility) ([1]; Balb/c mice, 12.5, 25 and 50 mg/kg i.p., amphetamine 2 mg/kg ip 30 minutes later, open field 20 minutes): dose-dependently antagonized; hyperactivity ensued by amphetamine ([1]; Balb/c mice, already at 12.5 mg/kg i.p., 12.5 mg/kg): effective; also recorded: antagonized; distance moved, combined with amphetamine ([1]; Balb/c mice, doses higher than 12.5 mg/kg i.p.): marked decrease; MK-801-induced hyperactivity ([2]; Balb/c mice, 7.5 mg/kg): slight effect; MK-801-induced hyperactivity ([2]; Balb/c mice, 25 mg/kg): normalization of activity; MK-801-induced hyperactivity ([2]; Balb/c mice, 50 mg/kg): sedation; MK-801-induced hyperactivity (distance moved) ([2]; Balb/c mice, 12.5, 25 and 50 mg/kg i.p., MK-801 0.15 mg/kg i.p.): dose dependent decrease; immobility (“not moving” total duration), MK-801 treated ([2]; Balb/c mice, high dose): appeared; frequency to the center of the field, MK-801 treated ([2]; Balb/c mice, low dose): tended to increase; time spent in the center, MK-801 treated ([2]; Balb/c mice, low dose): tended to increase; immobility (“not moving” total duration), MK-801 treated ([2]; Balb/c mice, small and intermediate doses (25 mg/kg)): not found; motility parameters ([3]; Balb/c mice, 50 mg/kg i.p.): marked decrease; duration of “not moving” periods [3, 6]: dose dependently increased; number of rearings vs. controls [3, 6]: decreased; motility (distance moved and velocity) ([3]; Balb/c mice, up to 25 mg/kg i.p.): mild decrease

Question: With `CN1C(=O)CN=C(c2ccccc2)c2cc(Cl)ccc21` [diazepam, reference compound] as the compound, how does the “number of rearings in the center” value [4] read?
Answer: significantly increased

Question: What about the “number of rearings in the open arm” value [4] of the same compound?
Answer: increased number of rearings

Question: And the velocity [4]?
Answer: higher

Question: For `Cc1cc2c(s1)Nc1ccccc1N=C2N1CCN(C)CC1` [olanzapine, reference compound], which distance moved [5] is on record?
Answer: significantly decreased

Question: What about the immobility [5] of the same compound?
Answer: increased

Question: What about the “strong mobility (climbing)” value [5] of the same compound?
Answer: significantly decreased

Question: What about the velocity [5] of the same compound?
Answer: significantly decreased
